Laboratory results: patent US6264916A, “N,N-dimethyldiatrizoic acid and its conjugates as hepatobiliary agents for x-ray CT imaging” (Bracco Research, USA, priority 2000, dated 2001)
Where two headings read alike, the source gives them in different places.

Columns and labels:
[1] = Biodistribution studies in mice (radioiodinated compounds, % ID/g-tissue); format: in vivo; conditions: tracer level, but MDTA-Na 0.18M and MDTA-NMG 0.19M; for Biodistribution, Blood 1' / Biodistribution, Kidney 1' / Biodistribution, Liver 1' / Biodistribution, Sm/Lrg. Intestine 1': 1 min; for Biodistribution, Blood 5' / Biodistribution, Kidney 5' / Biodistribution, Liver 5' / Biodistribution, Sm/Lrg. Intestine 5': 5 min; for tissue uptake at 1 h / tissue uptake at 1 min / tissue uptake at 5 min: mouse, iv
Method: All of the new analogs were radiolabeled in order to determine their physical and biological properties. The iodinated compounds were exchange-labeled by heating with Na^125 I in the presence of CuSO4 and Na2 S2 O5 in glacial acetic acid at 135-150° C. for 1 h, followed by HPLC purification using a nucleosil C18 column and CH3 CN--H2 O containing 0.1% TFA as an eluent. In some cases (e.g. the compound of Example 12) the radioiodination was carried out by heating with Na*I in HOAc--NaOAc (pH 4.6) at 100° C. for 15 min. In all cases radiolabeled compounds of acceptable radiochemical purity and specific activity were obtained.
The compound of formula I, N,N-dimethyl-diatrizoic acid, was similarly radiolabeled for biological studies.
a) For intravenous administration the preferred vehicle for the compounds of formula I, II and III is bovine serum albumin, however, other physiologically acceptable vehicles may also be used.
Biodistribution studies were conducted in mice and the results are given in Table I. X-Ray CT images of MDTA in mice and rats indicate that these hydrophobic diatrizoate analogs may be of promise for liver imaging.

[2] = Water solubility of MDTA salts; format: physicochemical
Method: The compound of formula I, N,N-Dimethyldiatrizoic acid (I') (hereinafter sometimes referred to as MDTA) was synthesized, as in reference H. Holtermann et al., U.S. Pat. No. 3,178,673, Apr. 13, 1965, by the N-methylation of diatrizoic acid (IV) using either methyl iodide or dimethyl sulfate in aqueous media at alkaline pH to obtain pure MDTA (>99.9% purity) as a white crystalline solid (m.p. 185° C.).

[3] = small/large intestine, 60', 60 min
[4] = blood, blood, 60', read-out: Biodistribution, Blood 60'

Structure (SMILES)	Biodistribution, Blood 1' ([1]; blood) [% ID/g-tissue]	Biodistribution, Blood 5' ([1]; blood) [% ID/g-tissue]	Biodistribution, Kidney 1' ([1]; kidney) [% ID/g-tissue]	Biodistribution, Kidney 5' ([1]; kidney) [% ID/g-tissue]	Biodistribution, Kidney 60' ([1]; kidney, 60', 60 min) [% ID/g-tissue]	Biodistribution, Liver 1' ([1]; liver) [% ID/g-tissue]	Biodistribution, Liver 5' ([1]; liver) [% ID/g-tissue]	Biodistribution, Liver 60' ([1]; liver, 60', 60 min) [% ID/g-tissue]	Biodistribution, Sm/Lrg. Intestine 1' ([1]; small/large intestine) [% ID/g-tissue]	Biodistribution, Sm/Lrg. Intestine 5' ([1]; small/large intestine) [% ID/g-tissue]	Biodistribution, Sm/Lrg. Intestine 60' [1, 3] [% ID/g-tissue]	tissue uptake at 1 h [1, 4] [%ID/g]	also measured
CC(=O)N(C)c1c(I)c(C(=O)O)c(I)c(N(C)C(C)=O)c1I [MDTA-NMG]	6.63	3.66	13.53	12.65	0.81	12.30	16.23	2.13	2.03	3.80	16.48	–	Biodistribution, Blood 60' ([1]; blood, 60', 60 min): 0.12 % ID/g-tissue; Water solubility ([2]; listed as N-methyl-glucamine (NMG) salt): ~ 1.3 M
CC(=O)N(C)c1c(I)c(C(=O)O)c(I)c(N(C)C(C)=O)c1I [MDTA-Na]	6.21	3.03	12.97	12.72	0.96	13.23	17.56	2.42	1.81	3.92	17.02	0.16	Water solubility ([2]; listed as sodium salt): ~ 0.35 M
CC(=O)N(C)c1c(I)c(C(=O)Nc2ccc(CCCCCCCCCCC(=O)O)cc2)c(I)c(N(C)C(C)=O)c1I [Example F11-P-MDTA, 4-[[[3,5-Bis(acetylmethylamino)-2,4,6-triiodophenyl]carbonyl]amino]benzeneundecanoic acid]	–	–	–	–	–	–	–	–	–	–	–	0.08	tissue uptake at 1 min ([1]; blood, blood, read-out: Biodistribution, Blood 1'): 9.14 %ID/g; tissue uptake at 5 min ([1]; blood, blood, read-out: Biodistribution, Blood 5'): 0.74 %ID/g; tissue uptake at 1 min ([1]; kidney, kidney, read-out: Biodistribution, Kidney 1'): 6.21 %ID/g; tissue uptake at 5 min ([1]; kidney, kidney, read-out: Biodistribution, Kidney 5'): 3.63 %ID/g; tissue uptake at 1 h ([1]; kidney, kidney, 60', read-out: Biodistribution, Kidney 60'): 0.1 %ID/g; tissue uptake at 1 min ([1]; liver, liver, read-out: Biodistribution, Liver 1'): 57.9 %ID/g; tissue uptake at 5 min ([1]; liver, liver, read-out: Biodistribution, Liver 5'): 60.1 %ID/g; tissue uptake at 1 h ([1]; liver, liver, 60', read-out: Biodistribution, Liver 60'): 2.96 %ID/g; tissue uptake at 1 min ([1]; small/large intestine, small/large intestine, read-out: Biodistribution, Sm/Lrg. Intestine 1'): 1.14 %ID/g; tissue uptake at 5 min ([1]; small/large intestine, small/large intestine, read-out: Biodistribution, Sm/Lrg. Intestine 5'): 3.06 %ID/g; tissue uptake at 1 h ([1]; small/large intestine, small/large intestine, 60', read-out: Biodistribution, Sm/Lrg. Intestine 60'): 38.2 %ID/g
